The record followed here is ChEMBL document CHEMBL3621050, “Activity and anion inhibition studies of the α-carbonic anhydrase from Thiomicrospira crunogena XCL-2 Gammaproteobacterium” (Bioorg Med Chem Lett, 2015).

Assay [1] in a line: Inhibition of Sulfurihydrogenibium yellowstonense YO3AOP1 alpha-carbonic anhydrase by [18O]-exchange mass spectroscopy.
The target of assay [2] is T1, Carbonic anhydrase, alpha family (Thiomicrospira crunogena, UniProt Q31FD6).
T1 sequence (Q31FD6 whole entry): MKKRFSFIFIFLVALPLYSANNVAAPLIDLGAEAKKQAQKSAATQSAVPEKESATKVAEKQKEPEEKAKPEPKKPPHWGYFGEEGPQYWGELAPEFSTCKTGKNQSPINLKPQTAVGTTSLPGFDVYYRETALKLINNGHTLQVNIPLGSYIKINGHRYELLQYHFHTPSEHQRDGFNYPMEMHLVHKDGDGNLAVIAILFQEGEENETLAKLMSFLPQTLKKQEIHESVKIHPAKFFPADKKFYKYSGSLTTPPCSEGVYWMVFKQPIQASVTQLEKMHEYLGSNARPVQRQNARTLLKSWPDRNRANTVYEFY
The assay is described as follows: Inhibition of Thiomicrospira crunogena XCL-2 alpha-carbonic anhydrase expressed in Escherichia coli BL21 (DE3) cells by [18O]-exchange mass spectroscopy.

Assay [3] can be described thus: Inhibition of Vibrio cholerae alpha-carbonic anhydrase by [18O]-exchange mass spectroscopy.
A short description of assay [4]: Inhibition of Sulfurihydrogenibium azorense alpha-carbonic anhydrase by [18O]-exchange mass spectroscopy.

For the molecule `Br` [BROMIDE], the Ki in assay [1] worked out at 49000 µM; in assay [2] it was 242000 µM; in assay [3], 28000 µM; in assay [4], 940 µM.
In the case of `Cl` [HYDROCHLORIC ACID], the Ki came to 8300 µM in assay [1], 361000 µM in assay [2], 930 µM in assay [3] and 850 µM in assay [4].
Regarding `S` [HYDROGEN SULFIDE], the Ki turned out to be 580 µM in assay [1], 1.1 µM in assay [2], 74 µM in assay [3] and 380 µM in assay [4].
The matching figures for `I` [IODIDE]: 860 µM, 53000 µM, 9730 µM and 870 µM.
